According to US20240166643A1, “IMIDAZO[1,2-A]PYRIDINE COMPOUNDS AND THEIR USE IN THERAPY” (Imperial College Innovations Limited, priority 2020, published 2024):
pEC50, pIC50: −log10 of the molar value. Where two headings read alike, the source gives them in different places.

Columns and labels:
Human NMT1 (HsNMT1) = Human NMT1 (HsNMT1) (Homo sapiens, UniProt P30419); assay: biochemical
[1] = test system: Plasmodium falciparum 3D7; assay: SYBR Green assay, Plasmodium falciparum strain 3D7; assay type: cell-based; conditions: P. falciparum strain 3D7, 96 h incubation, read-out: Pf EC50 strain 3D7
Experimental: Assay (g): SYBR Green Assay
EC50 values for Plasmodium falciparum (Pf) NMT strain 3D7 or NF54 were measured for certain compounds of the invention using an assay utilising SYBR Green dye. The assay for NMT strain 3D7 was carried out as follows:
Synchronous Plasmodium falciparum 3D7 late stage trophozoites at 33-36 h were used. Final parasitemia and haematocrit were between 0.1-0.2% and 2% respectively. Red blood cells used for the assay were centrifuged to remove the buffy coat and washed twice in Roswell Park Memorial Institute (RPMI) Media 1640 so that no white blood cells were present. The culture medium contained RPMI 1640 with 5 g/L Albumax, 0.025 g/L gentamycin and 0.292 g/L L-glutamine.
Sterile 96 well black tissue culture plates (Costar) were used routinely for every assay. […] Chloroquine was used as a standard with ten times reduced concentrations range as above. Two sets of control were used in duplicate wells, one set with no added compound of the invention or standard (positive control) and one with uninfected red blood cells (negative control).
The plates were incubated at 37° C. for 48 h in a gas chamber flushed with 5% CO2, 5% O2 and 90% N2. After 48 h supernatants were taken out from each well and replaced with fresh drug and incubated for a further 48 h in the same manner. At the end of the 96 h incubation, 25 μL of SYBR Green I dye (SYBR Green I nucleic acid gel stain 10,000×, in DMSO from Invitrogen) in lysis buffer (1 μL dye to 1 mL lysis buffer) was added to each well and stored overnight at −20° C. The lysis buffer contained Tris (20 mM, pH 8.0), EDTA (2 mM), Saponin (0.16%) and Triton X-100 (1.6% v/v).
Plates were warmed to room temperature and fluorescence intensity was measured with a FLUOstar Omega Microplate fluorescence reader (BMG Labtech). Values were expressed in relative fluorescence units. Binding of SYBR Green is specific for parasite DNA as mature erythrocytes lack DNA and RNA. Fluorescence intensity unit was converted to percentage (%) of growth as follows:
% growth=(culture under drug)−(uninfected RBC)/(culture with no drug)−(uninfected RBC)×100
and the EC50 value was determined.

[2] = target: Plasmodium vivax (Pv) NMT (Plasmodium vivax (strain Salvador I), UniProt A5K1A2); assay: biochemical
Plasmodium vivax (Pv) NMT, sequence (A5K1A2 1-410): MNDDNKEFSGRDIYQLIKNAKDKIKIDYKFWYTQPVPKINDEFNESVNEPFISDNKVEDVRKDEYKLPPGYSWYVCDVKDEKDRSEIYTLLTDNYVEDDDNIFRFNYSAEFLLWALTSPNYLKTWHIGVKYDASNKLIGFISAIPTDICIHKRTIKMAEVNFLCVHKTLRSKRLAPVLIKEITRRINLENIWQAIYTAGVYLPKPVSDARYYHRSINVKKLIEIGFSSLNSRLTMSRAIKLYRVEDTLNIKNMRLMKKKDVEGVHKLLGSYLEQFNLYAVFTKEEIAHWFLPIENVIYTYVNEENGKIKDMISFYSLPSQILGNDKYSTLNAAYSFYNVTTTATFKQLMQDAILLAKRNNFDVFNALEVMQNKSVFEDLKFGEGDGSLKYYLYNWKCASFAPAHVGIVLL

SU-DHL-10 cells = assay: Cell cytotoxicity in SU-DHL-10 cell line (CellTiter-Glo); assay type: cell-based; conditions: Homo sapiens, read-out: SU-DHL-10 EC50
Experimental: Assay (c): Cell Cytotoxicity in SU-DHL-10 Cell Line
Cell Culture: SU-DHL-10 (ATCC CRL-2963) were cultured in RPMI-media (ATCC, 30-2001).
Cultures were maintained by the addition of fresh medium and inoculum of 8.0×10^4 to 2.0×10^5 cells/mL. Subculturing was done when the cell density was between 1.0×10^6 and 2.0×10^6 cells/mL.
Cell seeding: 5000 cells/well were plated in 384-white clear bottom plates (Greiner, 781098) for the assay in 20 μl growth media.
Top dose: 1 mM stocks of each compound was prepared in 100% DMSO and thereafter diluted 333.33 fold in growth media to obtain 3 μM (0.3% DMSO) mid stock of each compound, from which 10 μl was added to assay wells (with 20 μl cells) for a final concentration of 1 μM (0.1% DMSO). For subsequent dose-response: 1 mM stock was diluted 3 fold in DMSO before subjecting to above dilution pattern to obtain final 0.1% DMSO concentration.
Treatment: Cells were incubated with the compounds for 48 h at 37° C. in presence of 5% CO2.
Assay Procedure: The assay plate and its contents were equilibrated at room temperature for approximately 30 minutes. CellTiter-Glo® Reagent was added equal to the volume (1;1) of cell culture medium present in each well. The contents were mixed for 5 minutes on an orbital shaker to induce cell lysis. The plate was allowed to incubate at room temperature for 10 minutes to stabilize luminescent signal. The luminescence was recorded with an integration time of 0.25 seconds in EnVision 2104 Multilabel Plate Reader (Perkin Elmer).
Calculation: % Cytotoxicity was calculated considering 100% cell death in wells treated with 0.1% TritonX.

Human NMT1 (HsNMT1), sequence (P30419 whole entry, looked up): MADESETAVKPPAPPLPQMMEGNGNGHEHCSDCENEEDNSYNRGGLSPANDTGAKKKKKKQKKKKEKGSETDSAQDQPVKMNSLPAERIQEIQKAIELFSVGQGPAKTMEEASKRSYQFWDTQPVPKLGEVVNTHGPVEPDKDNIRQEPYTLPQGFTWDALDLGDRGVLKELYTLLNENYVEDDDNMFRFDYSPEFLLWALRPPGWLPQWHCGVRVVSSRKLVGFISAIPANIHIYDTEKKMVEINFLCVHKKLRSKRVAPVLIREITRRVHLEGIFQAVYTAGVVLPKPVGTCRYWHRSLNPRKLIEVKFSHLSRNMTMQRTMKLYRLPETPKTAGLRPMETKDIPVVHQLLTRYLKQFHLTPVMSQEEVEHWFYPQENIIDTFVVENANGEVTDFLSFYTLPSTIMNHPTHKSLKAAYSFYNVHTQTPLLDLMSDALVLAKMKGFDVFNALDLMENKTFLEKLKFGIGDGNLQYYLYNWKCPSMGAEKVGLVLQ

| Compound | pIC50 (Human NMT1 (HsNMT1)) | pEC50 (SU-DHL-10 cells; SU-DHL10, CellTiter-Glo, 48 h) | further results |
| --- | --- | --- | --- |
| C[C@@H]1CN(c2ncc(F)c(N3CC(C(=O)NC(C)(C)c4cnc5ccccn45)C3)n2)C[C@@H](C)N1C [Example 93, 1-{5-fluoro-2-[(3R,5R)-3,4,5-trimethylpiperazin-1-yl]pyrimidin-4-yl}-N-(2-{imidazo[1,2-a]pyridin-3-yl}propan-2-yl)azetidine-3-carboxamide] | 6.60 |  | pEC50 [1]: 6.07; pIC50 [2]: 7.23 |
| Cc1ccc2ncc(C(C)(C)NC(=O)C3CN(c4nc(N5CCN(C)[C@H](C)C5)ncc4F)C3)n2c1 [Example 97, 1-{2-[(3R)-3,4-dimethylpiperazin-1-yl}-5-fluoropyrimidin-4-yl}-N-(2-{6-methylimidazo[1,2-a]pyridin-3-yl}propan-2-yl)azetidine-3-carboxamide] | 7.59 |  | pEC50 [1]: 7.16; pIC50 [2]: 8.31 |
| Cc1ccc2ncc(C(C)(C)NC(=O)C3CN(c4nc(N5CCN(C)[C@H](C)C5)ncc4Cl)C3)n2c1 [Example 98, 1-{5-chloro-2-[(3R)-3,4-dimethylpiperazin-1-yl]pyrimidin-4-yl}-N-(2-{6-methylimidazo[1,2-a]pyridin-3-yl}propan-2-yl)azetidine-3-carboxamide] | 8.27 |  | pEC50 [1]: 8.15; pIC50 [2]: 8.24 |
| CN1CCCN(c2nc(N3CC(C(=O)NC(C)(C)c4cnc5ccccn45)C3)c3ccsc3n2)CC1 [Example 113, N-(2-(imidazo[1,2-a]pyridin-3-yl)propan-2-yl)-1-(2-(4-methyl-1,4-diazepan-1-yl)thieno[2,3-d]pyrimidin-4-yl)azetidine-3-carboxamide] | 8.30 | 7.48 |  |
| CN1CCCN(c2nc3c(c(N4CC(C(=O)NC(C)(C)c5cnc6ccccn56)C4)n2)CCC3)CC1 [Example 114, N-(2-(imidazo[1,2-a]pyridin-3-yl)propan-2-yl)-1-(2-(4-methyl-1,4-diazepan-1-yl)-6,7-dihydro-5H-cyclopenta[d]pyrimidin-4-yl)azetidine-3-carboxamide] |  | 7.19 |  |
| Cc1nc(N2CCCN(C)CC2)nc(N2CC(C(=O)NC(C)(C)c3cnc4ccccn34)C2)c1Cl [Example 115, 1-(5-chloro-6-methyl-2-(4-methyl-1,4-diazepan-1-yl)pyrimidin-4-yl)-N-(2-(imidazo[1,2-a]pyridin-3-yl)propan-2-yl)azetidine-3-carboxamide] |  | 7.27 |  |
| Cc1cc2nc(N3CCCN(C)CC3)nc(N3CC(C(=O)NC(C)(C)c4cnc5ccccn45)C3)c2s1 [Example 116, N-(2-(imidazo[1,2-a]pyridin-3-yl)propan-2-yl)-1-(6-methyl-2-(4-methyl-1,4-diazepan-1-yl)thieno[3,2-d]pyrimidin-4-yl)azetidine-3-carboxamide] | 8.22 |  | pEC50 (SU-DHL-10 cells; SU-DHL10, 48 h): 7.13 |
| Cc1cc2c(N3CC(C(=O)NC(C)(C)c4cnc5ccccn45)C3)nc(N3CCCN(C)CC3)nc2s1 [Example 117, N-(2-(imidazo[1,2-a]pyridin-3-yl)propan-2-yl)-1-(6-methyl-2-(4-methyl-1,4-diazepan-1-yl)thieno[2,3-d]pyrimidin-4-yl)azetidine-3-carboxamide] | 8.22 | 7.18 |  |
| CN(C(=O)C1CN(c2nc(N3CCNCC3)ncc2Cl)C1)C(C)(C)c1cnc2ccccn12 [Example 119, 1-(5-chloro-2-(piperazin-1-yl)pyrimidin-4-yl)-N-(2-(imidazo[1,2-a]pyridin-3-yl)propan-2-yl)-N-methylazetidine-3-carboxamide] |  | 6.03 |  |
| CN(C(=O)C1CN(c2nc(N3CCCNCC3)ncc2Cl)C1)C(C)(C)c1cnc2ccccn12 [Example 120, 1-(5-chloro-2-(1,4-diazepan-1-yl)pyrimidin-4-yl)-N-(2-(Imidazo[1,2-a]pyridin-3-yl)propan-2-yl)-N-methylazetidine-3-carboxamide] |  | 6.26 |  |
| CN1CCCN(c2ncc(Cl)c(N3CC(C(=O)N(C)C(C)(C)c4cnc5ccccn45)C3)n2)CC1 [Example 121, 1-(5-chloro-2-(4-methyl-1,4-diazepan-1-yl)pyrimidin-4-yl)-N-(2-(Imidazo[1,2-a]pyridin-3-yl)propan-2-yl)-N-methylazetidine-3-carboxamide] | 8.40 | 7.38 |  |
| CN1CCCN(c2nc(N3CC(C(=O)N(C)C(C)(C)c4cnc5ccccn45)C3)c3sccc3n2)CC1 [Example 122, N-(2-(imidazo[1,2-a]pyridin-3-yl)propan-2-yl)-N-methyl-1-(2-(4-methyl-1,4-diazepan-1-yl)thieno[3,2-d]pyrimidin-4-yl)azetidine-3-carboxamide] | 8.40 | 7.30 |  |
| C[C@@H]1CN(c2ncc(Cl)c(N3CC(C(=O)N(C)C(C)(C)c4cnc5ccccn45)C3)n2)CCN1 [Example 124, (R)-1-(5-chloro-2-(3-methylpiperazin-1-yl)pyrimidin-4-yl)-N-(2-(Imidazo[1,2-a]pyridin-3-yl)propan-2-yl)-N-methylazetidine-3-carboxamide] |  | 6.35 |  |
| C[C@H]1CNCCN1c1nc(N2CC(C(=O)N(C)C(C)(C)c3cnc4ccccn34)C2)c2sccc2n1 [Example 125, (S)—N-(2-(imidazo[1,2-a]pyridin-3-yl)propan-2-yl)-N-methyl-1-(2-(2-methylpiperazin-1-yl)thieno[3,2-d]pyrimidin-4-yl)azetidine-3-carboxamide] |  | 6.44 |  |
| C[C@H]1CNCCN1c1nc(N2CC(C(=O)NC(C)(C)c3cnc4ccccn34)C2)c2sccc2n1 [Example 126, (S)—N-(2-(Imidazo[1,2-a]pyridin-3-yl)propan-2-yl)-1-(2-(2-methylpiperazin-1-yl)thieno[3,2-d]pyrimidin-4-yl)azetidine-3-carboxamide] | 8.30 | 6.58 |  |
| CN(C(=O)C1CN(c2nc(N3CCNC(C)(C)C3)ncc2Cl)C1)C(C)(C)c1cnc2ccccn12 [Example 127, 1-(5-chloro-2-(3,3-dimethylpiperazin-1-yl)pyrimidin-4-yl)-N-(2-(Imidazo[1,2-a]pyridin-3-yl)propan-2-yl)-N-methylazetidine-3-carboxamide] |  | 6.22 |  |
| CN(C(=O)C1CN(c2nc(N3CCNC4(CC4)C3)ncc2Cl)C1)C(C)(C)c1cnc2ccccn12 [Example 130, 1-(5-chloro-2-(4,7-diazaspiro[2.5]octan-7-yl)pyrimidin-4-yl)-N-(2-(imidazo[1,2-a]pyridin-3-yl)propan-2-yl)-N-methylazetidine-3-carboxamide] | 7.27 | 6.26 |  |
| CN(C(=O)C1CN(c2nc(N3CC4CCC(C3)N4)ncc2Cl)C1)C(C)(C)c1cnc2ccccn12 [Example 133, 1-(2-(3,8-diazabicyclo[3.2.1]octan-3-yl)-5-chloropyrimidin-4-yl)-N-(2-(imidazo[1,2-a]pyridin-3-yl)propan-2-yl)-N-methylazetidine-3-carboxamide] | 7.21 | 6.39 |  |
| CC1NCCN(c2ncc(Cl)c(N3CC(C(=O)N(C)C(C)(C)c4cnc5ccccn45)C3)n2)C1C (stereo not drawn) [Example 134, 1-(5-chloro-2-(2,3-dimethylpiperazin-1-yl)pyrimidin-4-yl)-N-(2-(Imidazo[1,2-a]pyridin-3-yl)propan-2-yl)-N-methylazetidine-3-carboxamide] | 8.30 | 6.97 |  |
| C[C@H]1CNCCN1c1ncc(C(F)(F)F)c(N2CC(C(=O)N(C)C(C)(C)c3cnc4ccccn34)C2)n1 [Example 135, (S)—N-(2-(imidazo[1,2-a]pyridin-3-yl)propan-2-yl)-N-methyl-1-(2-(2-methylpiperazin-1-yl)-5-(trifluoromethyl)pyrimidin-4-yl)azetidine-3-carboxamide] | 7.57 | 6.12 |  |
| C[C@H]1CN(c2ncc(Cl)c(N3CC(C(=O)N(C)C(C)(C)c4cnc5ccccn45)C3)n2)CCN1 [Example 139, (S)-1-(5-chloro-2-(3-methylpiperazin-1-yl)pyrimidin-4-yl)-N-(2-(Imidazo[1,2-a]pyridin-3-yl)propan-2-yl)-N-methylazetidine-3-carboxamide] |  | 6.27 |  |
| CN(C(=O)C1CN(c2nc(N3CCNCC3(C)C)ncc2Cl)C1)C(C)(C)c1cnc2ccccn12 [Example 149, 1-(5-chloro-2-(2,2-dimethylpiperazin-1-yl)pyrimidin-4-yl)-N-(2-(Imidazo[1,2-a]pyridin-3-yl)propan-2-yl)-N-methylazetidine-3-carboxamide] |  | 6.84 |  |
| CN(C(=O)C1CN(c2nc(N3CCNCC34CC4)ncc2Cl)C1)C(C)(C)c1cnc2ccccn12 [Example 150, 1-(5-chloro-2-(4,7-diazaspiro[2.5]octan-4-yl)pyrimidin-4-yl)-N-(2-(imidazo[1,2-a]pyridin-3-yl)propan-2-yl)-N-methylazetidine-3-carboxamide] |  | < 6.00 |  |
